Measurements from patent US6583161B1, “Benzenesulfonamides and benzamides as therapeutic agents” (Tularik Inc., priority 1998, dated 2003).

Legend:
MCF-7/ADR cells = assay: Cell growth inhibition using MCF-7/ADR cells; type: cell-based; details: Homo sapiens, NCI/ADR-RES
Description: (§1) Compounds can be evaluated for their ability to inhibit in vitro the growth of HeLa cells, an immortal cell line derived from a human cervical carcinoma commonly used to evaluate the cytotoxicity of potential therapeutic agents. The following data reflect the cytotoxicity of selected examples of the present invention. The values given represent the concentration of test compound required to inhibit by 50% the uptake of Alamar Blue (Biosource International, Camarillo, Calif.) by HeLa cell cultures, which correlates directly with the overall levels of cellular metabolism in the culture, and is generally accepted as an appropriate marker of cell growth. The test was conducted according to the method of Ahmed et al. (J. Immunol. Methods 1994, 170, 211). […] Compounds were similarly evaluated for cell growth inhibition using MCF-7 cells and MCF-7/ADR cells.

HeLa cells = assay: Inhibition of HeLa cell growth (Alamar Blue uptake); type: cell-based; details: Homo sapiens; concentration required to inhibit by 50% the uptake of Alamar Blue by HeLa cell cultures
Description: as §1

MCF-7 cells = assay: Cell growth inhibition using MCF-7 cells; type: cell-based; details: Homo sapiens, MCF7
Description: as §1

With COc1ccc(NS(=O)(=O)c2cc(OC)c(OC)c(OC)c2)cc1O [Example 1, 1-[(3-Hydroxy-4-methoxyphenyl)aminosulfonyl]-3,4,5-trimethoxybenzene] the IC50 (MCF-7/ADR cells) was 0.5 µM, the melting point was 145 to 146 °C and the IC50 (HeLa cells) was 0.15 µM. For the same molecule, the IC50 (MCF-7 cells) was 0.15 µM.
